Test results from the supplement of paper PMC10307832.

Each cell line was assayed with Cc1ccc(C(=O)Nc2ccc(CN3CCN(C)CC3)c(C(F)(F)F)c2)cc1C#Cc1cnc2cccnn12 [Ponatinib] + Cc1nc(NC(=O)N2CCC[C@H]2C(N)=O)sc1-c1ccnc(C(C)(C)C(F)(F)F)c1 [Alpelisib] (partner 2 µM) (assay: relative viability (nuclei count vs DMSO), 5 days (fraction); higher = more cells survive). Conditions: first compound 0.002 µM.
Method in brief: (§1)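 Relative viability was taken as the ratio of nuclei in treated wells to nuclei in vehicle wells. Lung cancer cell lines in 1536-well plates received compounds by pin tool one day after seeding, either one drug alone or a fixed anchor-drug dose plus five library-drug doses (not always all listed) in √10 steps. Nuclei were counted on 4× images after 5 days of treatment, and values are medians of duplicate plates.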

Row | Cell Line | relative viability
1 | HCC-15 | 0.82
2 | NCI-H1944 | 0.824
3 | PC-3 [JPC-3] | 1
4 | EKVX | 0.805
5 | LC-2-ad | 0.832
6 | NCI-H1975 | 0.618
7 | SK-LU-1 | 0.945
8 | SK-MES-1 | 0.981
9 | NCI-H661 | 0.562
10 | RERF-LC-KJ | 0.904

Same assay, conditions: first compound 0.006325 µM

Row | Cell Line | relative viability
11 | HCC-15 | 0.906
12 | NCI-H1944 | 0.943
13 | PC-3 [JPC-3] | 1.09
14 | EKVX | 0.936
15 | LC-2-ad | 0.792
16 | NCI-H1975 | 0.773
17 | SK-LU-1 | 1.14
18 | SK-MES-1 | 0.949
19 | NCI-H661 | 0.79
20 | RERF-LC-KJ | 0.739

Same assay, conditions: first compound 0.06325 µM

Row | Cell Line | relative viability
21 | HCC-15 | 0.988
22 | NCI-H1944 | 1.1
23 | PC-3 [JPC-3] | 1.02
24 | EKVX | 1.15
25 | LC-2-ad | 0.648
26 | NCI-H1975 | 0.92
27 | SK-LU-1 | 0.952
28 | SK-MES-1 | 1.32
29 | NCI-H661 | 0.733
30 | RERF-LC-KJ | 1.02

Same assay, conditions: first compound 0.2 µM

Row | Cell Line | relative viability
31 | HCC-15 | 0.805
32 | NCI-H1944 | 0.954
33 | PC-3 [JPC-3] | 1.09
34 | EKVX | 0.898
35 | LC-2-ad | 0.552
36 | NCI-H1975 | 0.675
37 | SK-LU-1 | 0.646
38 | SK-MES-1 | 1.05
39 | NCI-H661 | 0.506
40 | RERF-LC-KJ | 0.889

These cell lines were tested with Cc1ccc(Nc2nccc(N(C)c3ccc4c(C)n(C)nc4c3)n2)cc1S(N)(=O)=O [Pazopanib] + CC(=O)Nc1cccc(-n2c(=O)n(C3CC3)c(=O)c3c(Nc4ccc(I)cc4F)n(C)c(=O)c(C)c32)c1 [Trametinib] (partner 0.02 µM) in the same assay as above. Conditions: first compound 0.01 µM.
Method in brief: as §1

Row | Cell Line | relative viability
41 | HCC-15 | 0.326
42 | NCI-H1944 | 0.389
43 | EKVX | 0.337
44 | LC-2-ad | 0.905
45 | NCI-H1975 | 0.277
46 | SK-LU-1 | 0.42
47 | SK-MES-1 | 0.537
48 | NCI-H661 | 0.518
49 | RERF-LC-KJ | 0.82

Same assay, conditions: first compound 0.03162 µM

Row | Cell Line | relative viability
50 | HCC-15 | 0.338
51 | NCI-H1944 | 0.387
52 | PC-3 [JPC-3] | 0.686
53 | EKVX | 0.349
54 | LC-2-ad | 0.934
55 | NCI-H1975 | 0.323
56 | SK-LU-1 | 0.499
57 | SK-MES-1 | 0.555
58 | NCI-H661 | 0.589
59 | RERF-LC-KJ | 0.892

Same assay, conditions: first compound 0.1 µM

Row | Cell Line | relative viability
60 | HCC-15 | 0.382
61 | NCI-H1944 | 0.407
62 | PC-3 [JPC-3] | 0.73
63 | EKVX | 0.267
64 | LC-2-ad | 0.89
65 | NCI-H1975 | 0.369
66 | SK-LU-1 | 0.516
67 | SK-MES-1 | 0.621
68 | NCI-H661 | 0.621
69 | RERF-LC-KJ | 0.842

Same assay, conditions: first compound 0.3162 µM

Row | Cell Line | relative viability
70 | HCC-15 | 0.417
71 | NCI-H1944 | 0.453
72 | PC-3 [JPC-3] | 0.835
73 | EKVX | 0.318
74 | LC-2-ad | 0.915
75 | NCI-H1975 | 0.373
76 | SK-LU-1 | 0.54
77 | SK-MES-1 | 0.725
78 | NCI-H661 | 0.614
79 | RERF-LC-KJ | 0.805

Same assay, conditions: first compound 1 µM

Row | Cell Line | relative viability
80 | HCC-15 | 0.406
81 | NCI-H1944 | 0.433
82 | PC-3 [JPC-3] | 0.65
83 | EKVX | 0.449
84 | LC-2-ad | 0.858
85 | NCI-H1975 | 0.401
86 | SK-LU-1 | 0.54
87 | SK-MES-1 | 0.628
88 | NCI-H661 | 0.534
89 | RERF-LC-KJ | 0.853

What follows are cell lines tested with Cc1ccc(Nc2nccc(N(C)c3ccc4c(C)n(C)nc4c3)n2)cc1S(N)(=O)=O [Pazopanib] + CCNC(=O)c1noc(-c2cc(C(C)C)c(O)cc2O)c1-c1ccc(CN2CCOCC2)cc1 [Luminespib] (partner 0.01 µM) in the same assay as above. Conditions: first compound 0.01 µM.
Method in brief: as §1

Row | Cell Line | relative viability
90 | HCC-15 | 0.146
91 | PC-3 [JPC-3] | 0.784
92 | EKVX | 0.987
93 | LC-2-ad | 0.992
94 | NCI-H1975 | 0.157
95 | SK-LU-1 | 0.222
96 | SK-MES-1 | 0.846
97 | NCI-H661 | 0.926
98 | RERF-LC-KJ | 1.31

Same assay, conditions: first compound 0.03162 µM

Row | Cell Line | relative viability
99 | HCC-15 | 0.242
100 | NCI-H1944 | 0.784
101 | PC-3 [JPC-3] | 0.59
102 | EKVX | 0.763
103 | LC-2-ad | 1.06
104 | NCI-H1975 | 0.326
105 | SK-LU-1 | 0.221
106 | SK-MES-1 | 0.79
107 | NCI-H661 | 0.927
108 | RERF-LC-KJ | 1.36

Same assay, conditions: first compound 0.1 µM

Row | Cell Line | relative viability
109 | HCC-15 | 0.366
110 | NCI-H1944 | 0.771
111 | PC-3 [JPC-3] | 0.65
112 | EKVX | 0.728
113 | LC-2-ad | 1.02
114 | NCI-H1975 | 0.275
115 | SK-LU-1 | 0.175
116 | SK-MES-1 | 0.746
117 | NCI-H661 | 0.958
118 | RERF-LC-KJ | 1.29

Same assay, conditions: first compound 0.3162 µM

Row | Cell Line | relative viability
119 | HCC-15 | 0.2
120 | NCI-H1944 | 0.86
121 | PC-3 [JPC-3] | 0.69
122 | EKVX | 0.873
123 | LC-2-ad | 1.03
124 | NCI-H1975 | 0.272
125 | SK-LU-1 | 0.22
126 | SK-MES-1 | 0.913
127 | NCI-H661 | 1.02
128 | RERF-LC-KJ | 1.23

Same assay, conditions: first compound 1 µM

Row | Cell Line | relative viability
129 | HCC-15 | 0.498
130 | NCI-H1944 | 0.857
131 | PC-3 [JPC-3] | 0.65
132 | EKVX | 0.857
133 | LC-2-ad | 1.23
134 | NCI-H1975 | 0.331
135 | SK-LU-1 | 0.232
136 | SK-MES-1 | 0.75
137 | NCI-H661 | 0.953
138 | RERF-LC-KJ | 1.23

What follows are cell lines tested with Cc1ccc(Nc2nccc(N(C)c3ccc4c(C)n(C)nc4c3)n2)cc1S(N)(=O)=O [Pazopanib] + C[C@]1(O)C[C@@H](c2nc(-c3ccc4ccc(-c5ccccc5)nc4c3)c3c(N)nccn32)C1 [Linsitinib] (partner 1 µM) in the same assay as above. Conditions: first compound 0.01 µM.
Method in brief: as §1

Row | Cell Line | relative viability
139 | HCC-15 | 0.872
140 | NCI-H1944 | 1.08
141 | PC-3 [JPC-3] | 0.993
142 | EKVX | 0.95
143 | LC-2-ad | 0.813
144 | NCI-H1975 | 0.85
145 | SK-LU-1 | 1.02
146 | SK-MES-1 | 0.983
147 | NCI-H661 | 0.44
148 | RERF-LC-KJ | 0.889

Same assay, conditions: first compound 0.03162 µM

Row | Cell Line | relative viability
149 | HCC-15 | 0.905
150 | NCI-H1944 | 1.28
151 | PC-3 [JPC-3] | 0.972
152 | EKVX | 1.04
153 | LC-2-ad | 0.778
154 | NCI-H1975 | 0.943
155 | SK-LU-1 | 1.22
156 | SK-MES-1 | 1.01
157 | NCI-H661 | 0.637
158 | RERF-LC-KJ | 0.912

Same assay, conditions: first compound 0.1 µM

Row | Cell Line | relative viability
159 | HCC-15 | 0.94
160 | NCI-H1944 | 1.15
161 | PC-3 [JPC-3] | 0.961
162 | EKVX | 0.869
163 | LC-2-ad | 0.868
164 | NCI-H1975 | 0.992
165 | SK-LU-1 | 1.17
166 | SK-MES-1 | 1.12
167 | NCI-H661 | 0.581
168 | RERF-LC-KJ | 0.825

Same assay, conditions: first compound 0.3162 µM

Row | Cell Line | relative viability
169 | HCC-15 | 0.882
170 | NCI-H1944 | 1.24
171 | PC-3 [JPC-3] | 0.918
172 | EKVX | 1.03
173 | LC-2-ad | 0.8
174 | NCI-H1975 | 0.929
175 | SK-LU-1 | 1.27
176 | SK-MES-1 | 1.15
177 | NCI-H661 | 0.541
178 | RERF-LC-KJ | 0.782

Same assay, conditions: first compound 1 µM

Row | Cell Line | relative viability
179 | HCC-15 | 1.03
180 | NCI-H1944 | 1.32
181 | PC-3 [JPC-3] | 0.961
182 | EKVX | 1.04
183 | LC-2-ad | 0.842
184 | NCI-H1975 | 0.985
185 | SK-LU-1 | 1.11
186 | SK-MES-1 | 1.02
187 | NCI-H661 | 0.672
188 | RERF-LC-KJ | 0.912
